The values below come from PubChem BioAssay (NCI).

Among the test systems are CAKI-1 renal; MOLT-4 leukemia; NCI-H460 lung; PC-3 prostate; SF-539 CNS; OVCAR-3 ovarian.
Holding throughout (experiment): NCI anticancer screen, dose series, 48 h

Structures are written as SMILES.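 Five compound concentrations were applied to cells in 96-well plates for 48 hours; endpoints were derived by simple linear interpolation of the resulting dose-response curve. TGI marks complete inhibition of growth.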 A value given as a limit tells only on which side of the number the result lay.

Consider `CC(=O)Oc1cc2c(n(C)c1=O)CCC2`, for which the TGI in the assay with CAKI-1 renal, in the assay on MOLT-4 leukemia, in the assay with NCI-H460 lung, in the assay with PC-3 prostate and in the assay with SF-539 CNS was greater than 100 µM each time.
Turning to `O=C(NC(Cc1ccccc1)P(=O)(O)c1ccccc1)OCc1ccccc1` (stereo unspecified), the TGI with CAKI-1 renal, in the assay on MOLT-4 leukemia, in the assay on NCI-H460 lung, in the assay on OVCAR-3 ovarian and with PC-3 prostate was greater than 100 µM in each case.
`O=c1[nH]c(=S)c2[nH]c(=O)n(-c3ccccc3)c2[nH]1`: the TGI in the assay on CAKI-1 renal, in the assay with MOLT-4 leukemia, in the assay on NCI-H460 lung, with OVCAR-3 ovarian and with PC-3 prostate was greater than 100 µM throughout.
For `CSc1nc(Cl)c2c(n1)Sc1nc3ccccc3n1N=C2`, the TGI in the assay on CAKI-1 renal was 72.5 µM; in the assay on MOLT-4 leukemia it was 63.2 µM; in the assay with NCI-H460 lung, greater than 100 µM; in the assay with OVCAR-3 ovarian it was 75.8 µM; with PC-3 prostate, 48 µM.
With `S=c1sscc1N1CCSc2ssc(=S)c21`, the TGI with CAKI-1 renal, with MOLT-4 leukemia, in the assay on NCI-H460 lung, in the assay on PC-3 prostate and in the assay on SF-539 CNS was greater than 100 µM throughout.
In the case of `CCCC(=O)Oc1cc(OC(=O)CCC)c2c(C)cc(=O)oc2c1`, the TGI with MOLT-4 leukemia, with OVCAR-3 ovarian, in the assay on PC-3 prostate and with SF-539 CNS was greater than 100 µM each time.
In the case of `NC(=O)N/N=C/c1ccccc1O`, the TGI with CAKI-1 renal, with MOLT-4 leukemia, in the assay on NCI-H460 lung, with PC-3 prostate and with SF-539 CNS was greater than 100 µM in each case.
With `C[Si](C)(C)C#CCOC=C1CC1`, the TGI in the assay on CAKI-1 renal, in the assay on MOLT-4 leukemia, in the assay on NCI-H460 lung, in the assay on PC-3 prostate and in the assay with SF-539 CNS was greater than 100 µM in each case.
`Cc1cc2nc3c(C#N)c4c(c(Nc5ccc(Cl)cc5)n3c2cc1C)CCC4`: the TGI is 41.4 µM in the assay on CAKI-1 renal, greater than 100 µM in the assay on MOLT-4 leukemia, 35.4 µM in the assay with OVCAR-3 ovarian and 48.7 µM in the assay with SF-539 CNS.
As for `CC(C)(C)c1cc2c(O)c(c1)COCc1cc(C(C)(C)C)cc(c1O)COCc1cc(C(C)(C)C)cc(c1O)COC2`, the TGI in the assay with MOLT-4 leukemia, with NCI-H460 lung, in the assay on OVCAR-3 ovarian and in the assay on PC-3 prostate was greater than 100 µM in each case.
On to `COc1ccc(NC(C)=O)cc1N1C(=O)/C(=C\c2cccc(Oc3ccccc3)c2)SC1c1ccccc1` (stereo unspecified), for which the TGI with CAKI-1 renal is greater than 100 µM; in the assay with MOLT-4 leukemia, 82.6 µM; with NCI-H460 lung, greater than 100 µM; in the assay on OVCAR-3 ovarian it was 71.3 µM; in the assay on PC-3 prostate, greater than 100 µM.
Regarding `CC1OC(n2cnc3c(N)nc(Cl)nc32)C(C)(O)C1O` (stereo unspecified), the TGI in the assay with CAKI-1 renal, with MOLT-4 leukemia, in the assay on OVCAR-3 ovarian and with SF-539 CNS was greater than 25 µM throughout.
`O=C(O)CCCN=C(C(=NCCCC(=O)O)c1ccccc1)c1ccccc1`: the TGI in the assay with MOLT-4 leukemia, with NCI-H460 lung, in the assay with OVCAR-3 ovarian and in the assay on PC-3 prostate was greater than 100 µM in each case.
Turning to `CCCC(=O)OC1=C(c2ccccc2)Sc2ccccc2-n2cccc21`, the TGI in the assay with CAKI-1 renal, with MOLT-4 leukemia and in the assay with PC-3 prostate was greater than 10 µM throughout.
Take `COc1cc(C2S/C(=C/c3ccccc3)C(=O)N2c2ccccn2)cc(OC)c1OC` (stereo unspecified): the TGI is 52.3 µM in the assay on CAKI-1 renal, greater than 100 µM with MOLT-4 leukemia, 44.4 µM in the assay with OVCAR-3 ovarian and greater than 81.7 µM in the assay on PC-3 prostate.
Take `CC(=O)Oc1ccc2c3c1[C@@H]1O[C@@H]1c1cccc(c1-3)[C@@H]1O[C@H]21`: the TGI was 3.07 µM in the assay with CAKI-1 renal and greater than 100 µM in the assay with MOLT-4 leukemia.
For the compound `CCCNC(=O)c1cc(NC(=O)c2cc(NC(=O)CCS(=O)(=O)OC)cn2C)cn1C`, the TGI with CAKI-1 renal is greater than 75.3 µM; with MOLT-4 leukemia, greater than 87.8 µM; with NCI-H460 lung, greater than 100 µM; with OVCAR-3 ovarian it was 27.4 µM; with PC-3 prostate it was 98.9 µM.
As for `NNC(=O)CSc1nnc(CCCCCCCCc2nnc(SCC(=O)NN)o2)o1`, the TGI in the assay on CAKI-1 renal, with MOLT-4 leukemia, in the assay with NCI-H460 lung and in the assay on PC-3 prostate was greater than 100 µM in each case.
Turning to `C=C(C)COC(=O)COCC(=O)OCC(=C)C`, the TGI with CAKI-1 renal, in the assay with MOLT-4 leukemia, with NCI-H460 lung, with OVCAR-3 ovarian and in the assay on PC-3 prostate was greater than 100 µM each time.
For the compound `CC1CC/C(=C\c2ccc(F)cc2)C2=C1C(c1ccc(F)cc1)n1c(s/c(=C\c3ccc(Cl)cc3)c1=O)=N2` (stereo unspecified), the TGI in the assay with CAKI-1 renal, with MOLT-4 leukemia and in the assay with PC-3 prostate was greater than 100 µM each time.
Take `CCN(CC)c1ccc2cc(-c3csc(-c4ccc(N(C)C)cc4)n3)c(=O)oc2c1`: the TGI in the assay with CAKI-1 renal, with MOLT-4 leukemia, in the assay on NCI-H460 lung, with PC-3 prostate and in the assay on SF-539 CNS was greater than 100 µM in each case.
